# Entries after “also recorded” stand apart in the source; their conditions may differ. Where a name gives a salt, the structure may show the parent alone.
# Columns and labels:
# PS-DKO cells [1] = assay: Seahorse analysis of mitochondrial respiration (OCR); assay type: cell-based, mouse; details: BI 100 nM, myriocin 5 μM, TAPI-1 5 μM, 12-16 h, Aβ40:Aβ42 10:1, 6 ng/ml
# Description: (§1) Respirometry of cultured cells was performed using the XF24e Extracellular Flux Analyzer (Seahorse Bioscience). Oxygen consumption was measured in basal conditions (Seahorse media with 25 mM glucose and 2 mM pyruvate) and after the sequential addition of 1 μM oligomycin (Complex V inhibitor), 0.75 μM FCCP (uncoupler) and 1 μM rotenone/1 μM antimycin A (Complex I and Complex III inhibitors respectively).
# (§2) Respirometry of cultured cells was performed using the XF24e Extracellular Flux Analyzer (Seahorse Bioscience). Oxygen consumption was measured in basal conditions (Seahorse media with 25 mM glucose and 2 mM pyruvate) and after the sequential addition of 1 μM oligomycin (complex V inhibitor), 0.75 μM FCCP (uncoupler), and 1 μM rotenone/1 μM antimycin A (complex I and complex III inhibitors, respectively). All results were averages of five or more biological replicates. Every biological replicate consisted of three technical replicates. For every technical replicate, we plated equal number of cells (25,000 cell/well when MEFs were used, and 50,000 cells/well when human primary fibroblasts were analyzed). The number of cells was also counted after every respirometry assay to correct for cell death. All oxygen consumption (OCR) data were normalized by the number of viable cells or by protein quantity when isolated mitochondria were used.
# [2] = tested on: WT MEFs and presenilin-mutant (PS-DKO) cells; assay: Filipin staining of free cholesterol; assay type: cell-based, mouse; details: presenilin-mutant (PS-DKO) cells; CsA 100 nM; SSO 250 nM
# Description: Cells were washed in PBS and fixed in 3% paraformaldehyde at room temperature for 1 h. After washing in PBS three times, samples were incubated in 1.5 mg/ml glycine in 1×PBS to quench the paraformaldehyde and then incubated in 0.05 mg/ml of filipin in PBS/10% FBS for 2 h at room temperature. Free cholesterol signal was visualized in by microscopy and quantified by ImageJ.
# PS-DKO cells [3] = assay: Staining of lipid droplets with LipidTox Green; assay type: cell-based, mouse; details: BI 100 nM, desipramine 10 μM, GW4869 5 μM, 12-16 h, Gleevec 10 μM
# Description: Quantification of total cholesterol and cholesteryl esters was performed using the Cholesterol/Cholesteryl Ester Quantitation kit from Calbiochem (428901). Staining of lipid droplets Staining of lipid droplets was performed using HCS LipidTox™ Deep Green neutral lipid stain (Invitrogen H34475) according to the manufacturer's instructions. Lipid droplet staining was quantified using ImageJ. The different values represent the product of the intensity and the area covered by the fluorescent signal above background in every cell examined.
# Staining of lipid droplets was performed using HCS LipidTox™ Deep Green neutral lipid stain (Invitrogen H34475) according to the manufacturer's instructions. Lipid droplet staining was quantified using ImageJ. The different values represent the product of the intensity and the area covered by the fluorescent signal above background in every cell examined.
# APP = details: cited from earlier work; for Aβ: literature
# [4] = Ghanbarabadi et al.; cited from earlier work
# TRPML1 = TRPML1 (Homo sapiens, UniProt Q9GZU1); details: Shen, D. et al.; cited from earlier work
# TRPML1, sequence (Q9GZU1 whole entry, species assumed): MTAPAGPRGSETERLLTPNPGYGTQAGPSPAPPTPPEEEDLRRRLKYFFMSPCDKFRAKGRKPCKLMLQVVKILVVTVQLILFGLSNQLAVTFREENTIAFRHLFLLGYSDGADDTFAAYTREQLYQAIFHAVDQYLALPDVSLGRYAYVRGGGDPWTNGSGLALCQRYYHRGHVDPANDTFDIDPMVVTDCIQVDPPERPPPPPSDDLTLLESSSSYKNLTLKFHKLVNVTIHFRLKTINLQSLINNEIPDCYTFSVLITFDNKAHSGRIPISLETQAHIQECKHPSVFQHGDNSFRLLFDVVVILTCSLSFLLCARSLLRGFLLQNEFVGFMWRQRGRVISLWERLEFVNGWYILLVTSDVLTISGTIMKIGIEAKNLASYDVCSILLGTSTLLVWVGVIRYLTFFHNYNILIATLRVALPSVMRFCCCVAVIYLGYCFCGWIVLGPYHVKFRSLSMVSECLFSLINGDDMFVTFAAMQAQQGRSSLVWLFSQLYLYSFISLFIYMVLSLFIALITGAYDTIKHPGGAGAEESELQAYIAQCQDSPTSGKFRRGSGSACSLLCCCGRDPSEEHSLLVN
# Aβ42:Aβ40 ratio = Aβ42:Aβ40 ratio (ELISA); assay type: cell-based; details: PS-mutant cells, desipramine
# Description: Detection of Aβ40/Aβ42 levels in cell media was performed by ELISA following manufacturer's instructions (WAKO ELISA kit 294-64701 for Aβ40 and 292-64501 for Aβ42).
# AD mice = details: cited from earlier work
# γ-secretase = details: A2A-AR antagonists; Lu, J. et al.; cited from earlier work
# PS-DKO cells [5] = assay: Lipidomic analyses of membranes; assay type: cell-based, mouse; details: PS-DKO cells; BI 100 nM or myriocin 5 μM
# Description: (§3) Lipid extracts were prepared via chloroform-methanol extraction, spiked with appropriate internal standards, and analyzed using a 6490 Triple Quadrupole LC/MS system (Agilent Technologies, Santa Clara, Calif.) as described previously (6, 7). Glycerophospholipids and sphingolipids were separated with normal-phase HPLC using an Agilent Zorbax Rx-Sil column (inner diameter 2.1×100 mm) under the following conditions: mobile phase A (chloroform:methanol:1 M ammonium hydroxide, 89.9:10:0.1, v/v) and mobile phase B (chloroform:methanol:water:ammonium hydroxide, 55:39.9:5:0.1, v/v); 95% A for 2 min, linear gradient to 30% A over 18 min and held for 3 min, and linear gradient to 95% A over 2 min and held for 6 min. Quantification of lipid species was accomplished using multiple reaction monitoring (MRM) transitions that were developed in earlier studies (6) in conjunction with referencing of appropriate internal standards: ceramide d18:1/17:0 and sphingomyelin d18:1/12:0 (Avanti Polar Lipids, Alabaster, Ala.).
# as §3, with “Lipids were extracted from equal amounts of material (30 μg protein/sample). Lipid extracts” for “Lipid extracts”, “described previously (Chan et al., 2012). Glycerophospholipids and” for “described previously (6, 7). Glycerophospholipids and”, “hydroxide, 89.9:10:0.1, v/v/v) and mobile” for “hydroxide, 89.9:10:0.1, v/v) and mobile”, “hydroxide, 55:39.9:5:0.1, v/v/v); 95% A” for “hydroxide, 55:39.9:5:0.1, v/v); 95% A”, “earlier studies (Chan et al., 2012) in conjunction” for “earlier studies (6) in conjunction”, “Alabaster, Ala.). Values are represented as mole fraction with respect to total lipid (% molarity)” for “Alabaster, Ala.).”
# Lipids were extracted from equal amounts of material (30 μg protein/sample). Lipid extracts were prepared via chloroform-methanol extraction, spiked with appropriate internal standards, and analyzed using a 6490 Triple Quadrupole LC/MS system (Agilent Technologies, Santa Clara, Calif.) as described previously (Chan et al, 2012). Glycerophospholipids and sphingolipids were separated with normal-phase HPLC using an Agilent Zorbax Rx-Sil column (inner diameter 2.1×100 mm) under the following conditions: mobile phase A (chloroform:methanol:1 M ammonium hydroxide, 89.9:10:0.1, v/v/v) and mobile phase B (chloroform:methanol:water:ammonium hydroxide, 55:39.9:5:0.1, v/v/v/v); 95% A for 2 min, linear gradient to 30% A over 18 min and held for 3 min, and linear gradient to 95% A over 2 min and held for 6 min. Quantification of lipid species was accomplished using multiple reaction monitoring (MRM) transitions that were developed in earlier studies (Chan et al, 2012) in conjunction with referencing of appropriate internal standards: ceramide d18:1/17:0 and sphingomyelin d18:1/12:0 (Avanti Polar Lipids, Alabaster, Ala., USA). Values are represented as mole fraction with respect to total lipid (% molarity). For this, lipid mass (in moles) of any specific lipid is normalized by the total mass (in moles) of all the lipids measured (Chan et al, 2012). In addition, all of our results were further normalized by protein content.
# [6] = tested on: mitochondrial respiratory supercomplexes; assay: Supercomplex analysis (blue-native gels, in-gel activity and western blot); assay type: cell-based, mouse
# Description: Analysis and quantification of mitochondrial respiratory complexes by western blot and enzymatic in-gel activity were carried out as previously reported (Acin-Perez et al., 2008)
# Analysis and quantification of mitochondrial respiratory complexes by Western blot and enzymatic in-gel activity were carried out as described (Acin-Perez et al, 2008).
# APP-DKO cells = assay: Seahorse analysis of mitochondrial respiration (OCR); assay type: cell-based, mouse; details: WT and APP-DKO cells, Aβ42 oligomers 0, 5, 10 μM, 24 h, effect only at 10 μM
# Description: as §1
# (§4) To analyze the effect of Aβ addition, a mix of Aβ40/Aβ42 at a ratio 10:1 was added to the cultured cells to a final concentration of 6000 pg/ml for 24 h. For Aβ42 oligomer formation, 5 mM of Aβ42 in DMSO was diluted to 100 μM in ice-cold media, vortexed for 30 seconds, and incubated at 4° C. for 24 h. Aβ42 Oligomers were added to the cultured cells to a final concentration of 5 or 10 μM for 24 h.
# as §2
# as §4, with “6,000” for “6000”, “s,” for “seconds,”, “Aβ42 Oligomers were added to the cultured cells to a final concentration of 5 or 10 μM for 24 h.” left out
compound,measurement,setting,value
CC(C)C[C@H](CC(=O)NO)C(=O)N[C@@H](Cc1ccc2ccccc2c1)C(=O)N[C@@H](C)C(=O)NCCN [TAPI-1],"mitochondrial respiration (initial oxygen consumption rate, OCR)",PS-DKO cells [1],unaffected
cyclosporin A,free cholesterol levels (filipin staining),[2],reduces cholesterol levels in presenilin-mutant cells; also recorded: the increased level of cholesterol seen in PS-mutant cells was reversed
O=C(/C=C/c1ccc(/C=C/C(=O)Nc2ccc(C3=NCCN3)cc2)cc1)Nc1ccc(C2=NCCN2)cc1 [GW4869],number of lipid droplets (LDs),PS-DKO cells [3],reduced the accumulation of lipid droplets in PS-DKO cells to near-control levels; also recorded: reduced lipid droplet formation
CC(C)(C)NCC(O)c1cc(Cl)c(N)c(Cl)c1 (stereo not drawn) [Clenbuterol],Thr668p (APP phosphorylated at Thr668),"APP; Chai, G-s. et al.",reduced Thr668p
same,α-secretase,"APP; Chai, G-s. et al.",increased α-secretase
same,Aβ,APP,decreased Aβ
"CC(C)=CCC/C(C)=C/COc1ccc2ccc(=O)oc2c1 [auraptene, 7-geranyloxycoumarin]",memory,[4],enhances memory
CC1CC(C)(C)N(C(=O)CN2C(=O)c3ccccc3C2=O)c2ccccc21 (stereo not drawn) [ML-SA1],TRPML1-mediated lysosomal Ca2+ release,TRPML1,enhances TRPML1-mediated lysosomal Ca^2+ release
same,cholesterol,TRPML1,reduces cholesterol
CNCCCN1c2ccccc2CCc2ccccc21 [desipramine],number of lipid droplets (LDs),PS-DKO cells [3],reduced the accumulation of lipid droplets in PS-DKO cells to near-control levels; also recorded: reduced lipid droplet formation
same,Aβ42:Aβ40 ratio,Aβ42:Aβ40 ratio,reduced the Aβ42:Aβ40 ratio
same,Aβ42:Aβ40 ratio,Aβ42:Aβ40 ratio; listed as Desipramine,significantly reduced the Aβ42:Aβ40 ratio
O=C1[C@H](CC[C@H](O)c2ccc(F)cc2)[C@@H](c2ccc(O)cc2)N1c1ccc(F)cc1 [Ezetimibe],cognition / memory,AD mice,improves memory in AD mice
COCCOc1ccc(N2CCN(CCn3ncc4c3nc(N)n3nc(-c5ccco5)nc43)CC2)cc1 [Preladenant],Aβ42,γ-secretase,increased Aβ42
same,γ-secretase activity,γ-secretase,increased γ-secretase activity
CCCCCCCC/C=C\CCCCCCCC(=O)ON1C(=O)CC(S(=O)(=O)O)C1=O (stereo not drawn) [sulfo-N-succinimidyl oleate],free cholesterol levels (filipin staining),[2],reduces cholesterol levels in presenilin-mutant cells; also recorded: equally marked reduction in cellular free cholesterol
"Cc1ccc(NC(=O)c2ccc(CN3CCN(C)CC3)cc2)cc1Nc1nccc(-c2cccnc2)n1 [Gleevec, imatinib mesylate]",number of lipid droplets (LDs),PS-DKO cells [3],significant reduction of LDs
"O=C(O)CCCc1ccccc1 [PBA, phenylbutyric acid]",cholesterol defects,AD mice,rescues cholesterol defects
same,cognition / memory,AD mice,rescues cholesterol defects [4-6] and cognition
same,α- and γ-cleavage of APP,APP; reference [1],stimulates both α- and γ-cleavage of APP
"CCCCCCCC[C@H](SCCCCCC)C(=O)Nc1c(SC)cc(C)nc1SC [CP-113,818]",Aβ,APP,reduces Aβ
COc1ccc(N2CCOCC2)c2sc(NC(=O)N3CCC(C)(O)CC3)nc12 [Tozadenant],Aβ42,γ-secretase,increased Aβ42
same,γ-secretase activity,γ-secretase,increased γ-secretase activity
CCCCCCC(=O)CCCCCC/C=C/C[C@@H](O)[C@H](O)[C@@](N)(CO)C(=O)O [myriocin],"mitochondrial respiration (initial oxygen consumption rate, OCR)",PS-DKO cells [1],reversed the respiratory defect; also recorded: rescued the bioenergetic defect; also recorded: reversed the bioenergetic deficits in these cells
same,ceramide levels,PS-DKO cells [5],significant reductions in ceramide content
same,sphingomyelin levels,PS-DKO cells [5],slight decreases in sphingomyelin
same,"activity of supercomplexes I+III+IV, I+III and III+IV (in-gel complex I and IV activity)",[6]; mitochondria from PS-DKO cells incubated with BI or myriocin,rescued
same,assembly of respiratory supercomplexes (blue-native PAGE western blot),"[6]; mitochondria from PS-DKO cells, anti-complex I and III antibodies",increases the assembly of supercomplexes I+III and I+III+IV
"Aβ42 oligomers: oligomers formed from synthetic Aβ42 peptide, added at 5 or 10 μM",mitochondrial respiration (OCR),APP-DKO cells,slightly decreased
same,mitochondrial respiration (OCR),APP-DKO cells; listed as Aβ oligomers,had little effect on respiration
